The source made the active and inactive calls. The calls are words filed in the database; no cut-off is given here.
Assays:
[1] = test system: Cryptococcus neoformans; experiment: Antifungal activity against Cryptococcus neoformans ATCC 90113 by CLSI method; assay type: functional, organism-based
[2] = test system: Aspergillus fumigatus; experiment: Antifungal activity against Aspergillus fumigatus ATCC 90906 by CLSI method; assay type: functional, organism-based
[3] = test system: Candida albicans; experiment: Antifungal activity against Candida albicans ATCC 90028 by CLSI method; assay type: functional, organism-based
[4] = test system: Mus musculus; experiment: Toxicity in Cryptococcus neoformans ATCC 52657 infected mouse assessed as distension of jejunum at 10 mg/kg, ip qd for 5 days; assay type: organism-based; set-up: dose 10 mg/kg, route intraperitoneal; details: in vivo, 120 h
[5] = test system: Mus musculus; experiment: Toxicity in Cryptococcus neoformans ATCC 52657 infected mouse assessed as decrease in mobility at 10 to 20 mg/kg, ip qd for 5 days after 2 hrs last post dose; assay type: organism-based; set-up: dose 10-20 mg/kg, route intraperitoneal; details: in vivo
[6] = test system: Mus musculus; experiment: Toxicity in Cryptococcus neoformans ATCC 52657 infected mouse assessed as change in body weight at 20 mg/kg, ip qd for 5 days; assay type: organism-based; set-up: dose 20 mg/kg, route intraperitoneal; details: in vivo, 120 h
[7] = test system: Mus musculus; experiment: Toxicity in Cryptococcus neoformans ATCC 52657 infected mouse assessed as change in gross pathology of kidney at 10 to 20 mg/kg, ip qd for 5 days; assay type: organism-based; set-up: dose 10-20 mg/kg, route intraperitoneal; details: in vivo, 120 h
[8] = test system: Mus musculus; experiment: Toxicity in Cryptococcus neoformans ATCC 52657 infected mouse assessed as signs of discomfort at 10 to 20 mg/kg, ip qd for 5 days; assay type: organism-based; set-up: dose 10-20 mg/kg, route intraperitoneal; details: in vivo, 120 h
[9] = test system: Mus musculus; experiment: Toxicity in Cryptococcus neoformans ATCC 52657 infected mouse assessed as distension of jejunum at 20 mg/kg, ip qd for 5 days; assay type: organism-based; set-up: dose 20 mg/kg, route intraperitoneal; details: in vivo, 120 h
[10] = test system: Mus musculus; experiment: Toxicity in Cryptococcus neoformans ATCC 52657 infected mouse assessed as decrease in mobility at 10 to 20 mg/kg, ip qd for 5 days; assay type: organism-based; set-up: dose 10-20 mg/kg, route intraperitoneal; details: in vivo, 120 h
[11] = test system: Mus musculus; experiment: Toxicity in Cryptococcus neoformans ATCC 52657 infected mouse assessed as change in gross pathology of spleen at 10 to 20 mg/kg, ip qd for 5 days; assay type: organism-based; set-up: dose 10-20 mg/kg, route intraperitoneal; details: in vivo, 120 h
[12] = test system: Candida albicans; experiment: Antifungal activity against Candida albicans ATCC 90028 at 20 ug/ml by CLSI method; assay type: functional, organism-based
[13] = test system: Mus musculus; experiment: Toxicity in Cryptococcus neoformans ATCC 52657 infected mouse assessed as distension of cecum at 20 mg/kg, ip qd for 5 days; assay type: organism-based, Caecum; set-up: dose 20 mg/kg, route intraperitoneal; details: in vivo, 120 h
[14] = test system: Mus musculus; experiment: Toxicity in Cryptococcus neoformans ATCC 52657 infected mouse assessed as distension of duodenum at 20 mg/kg, ip qd for 5 days; assay type: organism-based; set-up: dose 20 mg/kg; details: in vivo, other, 120 h
[15] = test system: Mus musculus; experiment: Toxicity in Cryptococcus neoformans ATCC 52657 infected mouse assessed as distension of duodenum at 10 mg/kg, ip qd for 5 days; assay type: organism-based; set-up: dose 10 mg/kg; details: in vivo, other, 120 h
[16] = test system: Mus musculus; experiment: Toxicity in Cryptococcus neoformans ATCC 52657 infected mouse assessed as enlargement of liver with fusion of hepatic lobes at 20 mg/kg, ip qd for 5 days; assay type: organism-based; set-up: dose 20 mg/kg, route intraperitoneal; details: in vivo, 120 h
[17] = test system: Mus musculus; experiment: Toxicity in Cryptococcus neoformans ATCC 52657 infected mouse assessed as change in body weight at 10 mg/kg, ip qd for 5 days; assay type: organism-based; set-up: dose 10 mg/kg, route intraperitoneal; details: in vivo, 120 h
[18] = test system: Mus musculus; experiment: Toxicity in Cryptococcus neoformans ATCC 52657 infected mouse assessed as signs of discomfort at 10 to 20 mg/kg, ip qd for 5 days after 2 hrs last post dose; assay type: organism-based; set-up: dose 10-20 mg/kg, route intraperitoneal; details: in vivo
[19] = test system: Mus musculus; experiment: Toxicity in Cryptococcus neoformans ATCC 52657 infected mouse assessed as pathological lesions at 10 mg/kg, ip qd for 5 days; assay type: organism-based; set-up: dose 10 mg/kg, route intraperitoneal; details: in vivo, 120 h
[20] = test system: Vero; experiment: Cytotoxicity against african green monkey Vero cells after 48 hrs by neutral red assay; assay type: cell-based; details: Chlorocebus sabaeus
[21] = test system: Mus musculus; experiment: Toxicity in Cryptococcus neoformans ATCC 52657 infected mouse assessed as distension of cecum at 10 mg/kg, ip qd for 5 days; assay type: organism-based, Caecum; set-up: dose 10 mg/kg, route intraperitoneal; details: in vivo, 120 h
[22] = test system: Cryptococcus neoformans; experiment: Antifungal activity against Cryptococcus neoformans ATCC 90113 at 20 ug/ml by CLSI method; assay type: functional, organism-based
[23] = test system: Aspergillus fumigatus; experiment: Antifungal activity against Aspergillus fumigatus ATCC 90906 at 20 ug/ml by CLSI method; assay type: functional, organism-based
[24] = test system: Candida albicans; experiment: Antifungal activity against Candida albicans B311 ATCC 32354-infected mouse assessed as reduction of CFU per gram of kidney at 1.2 mg/kg, ip qd for 3 days relative to control; assay type: functional; set-up: scale not given: the % may be the effect or the level left; details: route intraperitoneal
[25] = test system: Mus musculus; experiment: Toxicity in Candida albicans B311 ATCC 32354-infected mouse assessed as gross pathological lesions at 1 to 10 mg/kg, ip qd for 3 days; assay type: organism-based; set-up: dose 1-10 mg/kg, route intraperitoneal; details: in vivo, 72 h
[26] = test system: Cryptococcus neoformans; experiment: Antifungal activity against Cryptococcus neoformans ATCC 52657-infected mouse assessed as reduction of CFU per gram of brain at 5 mg/kg, ip qd for 5 days relative to control; assay type: functional; set-up: scale not given: the % may be the effect or the level left; details: route intraperitoneal
[27] = test system: Cryptococcus neoformans; experiment: Antifungal activity against Cryptococcus neoformans ATCC 52657-infected mouse assessed as reduction of CFU per gram of brain at 1.2 mg/kg, ip qd for 5 days relative to control; assay type: functional; set-up: scale not given: the % may be the effect or the level left; details: route intraperitoneal
[28] = Toxicity in Candida albicans B311 ATCC 32354-infected ip dosed mouse administered qd for 3 days; assay type: organism-based; details: in vivo
[29] = test system: Candida albicans; experiment: Antifungal activity against Candida albicans B311 ATCC 32354-infected mouse assessed as reduction of CFU per gram of kidney at 1 mg/kg, ip qd for 3 days relative to control; assay type: functional; set-up: scale not given: the % may be the effect or the level left; details: route intraperitoneal
[30] = test system: Mus musculus; experiment: Toxicity in Candida albicans B311 ATCC 32354-infected mouse assessed as change in body weight at 1 to 10 mg/kg, ip qd for 3 days; assay type: organism-based; set-up: dose 1-10 mg/kg, route intraperitoneal; details: in vivo, 72 h
[31] = test system: Candida albicans; experiment: Antifungal activity against Candida albicans B311 ATCC 32354-infected mouse assessed as reduction of CFU per gram of kidney at 10 mg/kg, ip qd for 3 days relative to control; assay type: functional; set-up: scale not given: the % may be the effect or the level left; details: route intraperitoneal
[32] = Toxicity in Candida albicans B311 ATCC 32354-infected mouse assessed as white deposits of unknown origin in peritoneal cavity at 20 mg/kg, ip qd for 3 days; assay type: organism-based; set-up: dose 20 mg/kg, route intraperitoneal; details: in vivo, 72 h
[33] = test system: Cryptococcus neoformans; experiment: Antifungal activity against Cryptococcus neoformans ATCC 52657-infected mouse assessed as reduction of CFU per gram of brain at 1 mg/kg, ip qd for 5 days relative to control; assay type: functional; set-up: scale not given: the % may be the effect or the level left; details: route intraperitoneal
[34] = test system: Cryptococcus neoformans; experiment: Antifungal activity against Cryptococcus neoformans ATCC 52657-infected mouse assessed as reduction of CFU per gram of brain at 10 mg/kg, ip qd for 5 days relative to control; assay type: functional; set-up: scale not given: the % may be the effect or the level left; details: route intraperitoneal
[35] = test system: Candida albicans; experiment: Antifungal activity against Candida albicans B311 ATCC 32354-infected mouse assessed as reduction of CFU per gram of kidney at 5 mg/kg, ip qd for 3 days relative to control; assay type: functional; set-up: scale not given: the % may be the effect or the level left; details: route intraperitoneal
[36] = test system: Pichia kudriavzevii; experiment: Antifungal activity against Candida krusei ATCC 6258 by CLSI method; assay type: functional, organism-based
[37] = Candida albicans, ATCC 90028, read-out: MFC

| SMILES | IC50 [1] [µg/mL] | MIC [1] [µg/mL] | IC50 [2] [µg/mL] | MIC [2] [µg/mL] | IC50 ([3]; Candida albicans, ATCC 90028) [µg/mL] | MIC ([3]; Candida albicans, ATCC 90028) [µg/mL] | IC50 [20] [µg/mL] | further results |
| --- | --- | --- | --- | --- | --- | --- | --- | --- |
| COc1cccc2cc3sc4ccccc4c3[n+](C)c12.O=S(=O)([O-])C(F)(F)F | 15 | > 20 | 3 | 5 | 15 | > 20 |  |  |
| C[n+]1c2c(Cl)cccc2cc2sc3ccccc3c21.O=S(=O)([O-])C(F)(F)F | 4 | 10 | 6 | 10 |  |  | > 10 | Activity [4]: Toxic; Activity [5]: Non-toxic; Activity [6]: Toxic; Activity [7]: Non-toxic; Activity [8]: Toxic; Activity [9]: Toxic; Activity [10]: Toxic; Activity [11]: Non-toxic; Activity [12]: inactive; Activity [13]: Toxic; Activity [14]: Toxic; Activity [15]: Toxic; Activity [16]: Toxic; Activity [17]: Non-toxic; Activity [18]: Non-toxic; Activity [19]: Non-toxic; Activity [21]: Toxic |
| C[n+]1c2ccc(Cl)cc2cc2sc3ccccc3c21.[I-] | 15 | > 20 |  | 2.5 | 2 | > 20 | > 23.8 |  |
| C[n+]1c2ccccc2cc2sc3c(Cl)cccc3c21.[I-] | 15 | > 20 | 6.5 | 10 | > 20 | > 20 |  |  |
| C[n+]1c2ccccc2cc2sc3ccccc3c21.O=S(=O)([O-])C(F)(F)F | > 15 | > 20 |  | > 20 | 10 | > 20 | > 23.8 |  |
| COc1cccc2c1cc1sc3ccccc3c1[n+]2C.[I-] |  |  | 1.5 | 2.5 | 15 | > 20 |  |  |
| C[n+]1c2ccccc2cc2sc3ccc(Cl)cc3c21.[I-] |  |  |  |  | 20 | > 20 | > 10 | Activity [22]: inactive; Activity [23]: inactive |
| COc1cccc2c1cc1sc3ccccc3c1[n+]2C.O=S(=O)([O-])C(F)(F)F |  |  | 0.8 | 1.3 | 15 | > 20 | > 4.7 |  |
| COc1ccc2cc3sc4ccccc4c3[n+](C)c2c1.O=S(=O)([O-])C(F)(F)F | 6 | > 20 | 0.4 | 0.6 | 1.5 | 10 | > 10 | Activity [24]: 99%; Activity [25]: Non-toxic; Activity [26]: 26%; Activity [27]: 24%; MTD at 72 h [28]: 10 mg/kg; Activity [29]: 34%; Activity [30]: Non-toxic; Activity [31]: 86%; Activity [32]: Toxic; Activity [33]: 50%; Activity [34]: 10%; Activity [35]: 26% |
| C[n+]1cc(Sc2ccccc2)cc2ccccc21.[I-] | 15 | 20 |  | > 2.5 | 6 | 20 |  | MFC [1]: > 20 µg/mL; MFC [2]: 20 µg/mL; MFC [3, 37]: > 20 µg/mL |
| [I-].c1ccc(CCCCC[n+]2cc(Sc3ccccc3)cc3ccccc32)cc1 | 1.5 | 5 |  | 1.3 | 5.5 | 10 |  | MFC [1]: 10 µg/mL; MFC [2]: > 20 µg/mL; IC50 [36]: 1.5 µg/mL; MFC [36]: 20 µg/mL; MIC [36]: 5 µg/mL; MFC [3]: 20 µg/mL; MFC [3, 37]: > 20 µg/mL |
| C[n+]1c2cccc(Cl)c2cc2sc3ccccc3c21.O=S(=O)([O-])C(F)(F)F |  |  | 3 | 10 |  |  |  | Activity [22]: inactive; Activity [12]: inactive |
